# According to US11413278B2, “Compounds and methods for promoting stress resistance” (priority 2015, dated 2022):
# Entries after “also recorded” stand apart in the source; their conditions may differ. Where two headings read alike, the source gives them in different places.
# Assays:
# WI-38 cells [1] = assay: Long-term effects on cell viability (5 days, ATP; morphology, PI imaging); assay type: cell-based; conditions: for Luminescence signal for ATP measurement, day-1 Average / Luminescence signal for ATP measurement, day-2 Average / Luminescence signal for ATP measurement, day-3 Average / Luminescence signal for ATP measurement, day-4 Average / Luminescence signal for ATP measurement, day-5 Average: n = 6, day-0 luminescence = 320956 ± 24708;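 for Luminescence signal for ATP measurement, day-2 Average: compounds at 10 µM with ATP read daily over 5 days of treatment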;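 for Luminescence signal for ATP measurement, day-3 Average: compounds at 10 µM with ATP read daily over 5 days of treatment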;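 for Luminescence signal for ATP measurement, day-4 Average: compounds at 10 µM with ATP read daily over 5 days of treatment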;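 for Luminescence signal for ATP measurement, day-5 Average: compounds at 10 µM with ATP read daily over 5 days of treatment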
# [2] = test system: PC12 cells expressing poly(Q)103-Htt-EGFP; assay: Poly(Q) toxicity & viability analysis (cellular model of Huntington's disease); assay type: cell-based, rat; conditions: for M = Huntington's poly-Q toxicity attenuation: score; for K = Huntington's poly-Q toxicity attenuation: summary score
# Summary of the method: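 Readout is CellTiter-Glo ATP content measured after 48 hrs. Cells are a PC12 line stably expressing inducible poly(Q)103-Htt-EGFP, where induction produces toxic aggregates.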
# [3] = test system: phosphorylated γH2A.X and TP53BP1; assay: DNA damage marker analysis (immuno-staining); conditions: for activity at 10 µM: Homo sapiens, WI-38, 24 h
# Summary of the method: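 Immunofluorescence read-out for phospho-γH2A.X (Ser-139) and phospho-TP53BP1 (Ser-1778), with DAPI nuclear stain and automated imaging at 10×. WI-38 cells (~8,000 per well) were exposed to small molecules for 24 h after 24 h of culture, with doxorubicin (300 nM, 24 h) or H2O2 (700 μM, 3 h) as positive damage controls.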
# WI-38 cells [4] = test system: WI-38 cells
# WI-38 cells [5] = assay: MMS resistance assay; assay type: cell-based, human; conditions: for fold induction at 10 µM: Homo sapiens, 12 h
# Summary of the method: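 Resistance to CdCl2 or MMS stress (12 h exposure) was scored in WI-38 fibroblasts pretreated with compound at 0.25–20 μM final, five doses, technical triplicates. MMS plates had compound added 24 h before MMS, after a shift to serum-free DMEM+2% BSA. Significance came from a global variance t-test over two independent runs.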
# [6] = negative point, cultured human cells
# [7] = Experiment 2, WI-38 cells, 10 μM, 24 hrs, no H2O2, normalized marker-positive fraction, n = 3
# [8] = Experiment 2, WI-38 cells, 10 μM, 24 hrs, under H2O2 stress, normalized marker-positive fraction, n = 3
# [9] = WI-38 cells, 10 μM, (*) = compromised ability to protect cells from H2O2, could be due to stability issue
# [10] = WI-38 cells, 10 uM, normalized ATP measurement
# [11] = asterisks indicate the loss of the ability to protect cells from H2O2 over time
# [12] = derived from dose response curves, 0.6-20 uM, H2O2-resistance of WI-38 cells
# [13] = read-out: Est. ED50, dose response 0.6-20 μM, H2O2-resistance
# [14] = score in summary of 38 core set hits
structure (smiles),measurement,setting,value
COc1cc2c(no[n+]2[O-])n2nnnc12 [O11],"Long-term cell toxicity (cell number, morphology, PI-positive dead cells)","WI-38 cells [1]; 10 μM, up to 5 days, no H2O2","reduced cell number substantially and increased the fraction of PI-positive dead cells; also recorded: less cells, and more cells scored positive for propidium iodide"
same,"Luminescence signal for ATP measurement, day-1 Average","WI-38 cells [1]; Batch 1, 10 μM",310373
same,"Luminescence signal for ATP measurement, day-2 Average","WI-38 cells [1]; Batch 1, 10 μM",412288
same,"Luminescence signal for ATP measurement, day-3 Average","WI-38 cells [1]; Batch 1, 10 μM",484520
same,"Luminescence signal for ATP measurement, day-4 Average","WI-38 cells [1]; Batch 1, 10 μM",642267
same,ATP luminescence by day-5 normalized,"WI-38 cells [1]; Batch 1, 10 μM, day-5, DMSO ctrl = 100.0%",61.7%
same,"Luminescence signal for ATP measurement, day-5 Average","WI-38 cells [1]; Batch 1, 10 μM, day-5",633963
same,Q = Potential toxicity,WI-38 cells [1]; [6],1
same,O = Potential toxicity,WI-38 cells [1]; summary score,1
same,M = Huntington's poly-Q toxicity attenuation,[2],0
same,K = Huntington's poly-Q toxicity attenuation,[2],0
same,Percentage of both γH2A.X- and TP53BP1-positive cells (DNA damage markers),"[3]; 10 μM, 24 hrs, absence of H2O2",did not appear to increase both
same,"Experiment 1, H2A.X-P DNA damage foci staining (no H2O2 stress treatment), at 10 uM","[3]; Experiment 1, WI-38 cells, 10 μM, 24 hrs, no H2O2, normalized marker-positive fraction, n = 3","83.1%,"
same,"Experiment 2, H2A.X-P DNA damage foci staining (no H2O2 stress treatment), at 10 uM",[3]; [7],"91.2%,"
same,"Experiment 2, TP53BP1-P DNA damage foci staining (no H2O2 stress treatment), at 10 uM",[3]; [7],"154.0%,"
same,"Experiment 2, H2A.X-P DNA damage foci staining (under H2O2 stress treatment), at 10 uM",[3]; [8],"151.7%,"
same,"Experiment 2, TP53BP1-P DNA damage foci staining (under H2O2 stress treatment), at 10 uM",[3]; [8],"560.5%,"
same,R = Potential DNA damaging,[3]; [6],0
same,P = Potential DNA-damaging,[3]; summary score,0
same,"Screen 1: Screening, at 10 uM (viability assay by ATP measurement, normalized fold-change shown, >=2.5)","WI-38 cells [4]; 10 uM, 24 h, then 700 μM H2O2 3 h, normalized to DMSO",3.42 fold-change
same,"Screen 2: Dose response, at 10 uM (viability assay by ATP measurement, normalized fold-change shown, >=1.5)","WI-38 cells [4]; 10 uM, H2O2 stress",6.71 fold-change
same,"Screen 3: Dose response, at 20 uM (viability assay by ATP measurement, normalized fold-change shown)","WI-38 cells [4]; 20 uM, H2O2 stress",3.00 fold-change
same,"Exp. 1, under H2O2 stress treatment, at 10 uM (fold change)","WI-38 cells [4]; Exp. 1, WI-38 cells, 10 uM, normalized ATP measurement (Table 12)",3.53 fold change
same,"Exp. 2, under H2O2 stress treatment, at 10 uM (fold change)","WI-38 cells [4]; Exp. 2, WI-38 cells, 10 uM, normalized ATP measurement (Table 12)",2.10 fold change
same,"Experiment 1, WI-38 cells (under H2O2 stress treatment), at 10 uM (fold change)","WI-38 cells [4]; Experiment 1, WI-38 cells, 10 uM (run along with HDF cells)",2.52 fold change
same,"Experiment 2, WI-38 cells (under H2O2 stress treatment), at 10 uM (fold change)","WI-38 cells [4]; Experiment 2, WI-38 cells, 10 uM (run along with HDF cells)",28.12 fold change
same,"Dose response retest, at 10 uM (fold change)","WI-38 cells [4]; H2O2-resistance of WI-38 cells, cherry-picked retest, 10 uM",6.71 fold change
same,"Dose response retest, at 20 uM (fold change)","WI-38 cells [4]; H2O2-resistance of WI-38 cells, cherry-picked retest, 20 uM",3.00 fold change
same,"Library Screening, at 10 uM (fold change)","WI-38 cells [4]; H2O2-resistance of WI-38 cells, library screening, 10 uM",3.42 fold change
same,H2O2-resistant,WI-38 cells [4]; [9],YES
same,"H2O2 stress treatment (3 hrs), at 10 uM (fold change)","WI-38 cells [4]; WI-38 cells, H2O2 3 hrs, 10 uM, normalized ATP measurement",7.18 fold change
same,"No H2O2 stress treatment, at 10 uM (fold change)",WI-38 cells [4]; [10],0.75 fold change
same,Assay 1: H2O2-resistant,"WI-38 cells [4]; YES/NO, if NO, possibly due to repeated freezing/thawing of stocks",YES
same,H2O2-resistant,WI-38 cells [4]; [11],YES
same,EC50,WI-38 cells [4]; [12],4400 nM
same,EC50,WI-38 cells [4]; [13],4400 nM
same,"Exp. 1, under MMS stress treatment, at 10 uM (fold change)","WI-38 cells [5]; Exp. 1, WI-38 cells, 10 uM, normalized ATP measurement",0.97 fold change
same,"Exp. 2, under MMS stress treatment, at 10 uM (fold change)","WI-38 cells [5]; Exp. 2, WI-38 cells, 10 uM, normalized ATP measurement",4.20 fold change
same,B = MMS resistant,WI-38 cells [5]; [14],0
same,B = MMS resistant,WI-38 cells [5]; summary score,0
same,D = Triple resistant,WI-38 cells [5]; summary score,0
CCCC(=O)Nc1ccc(-c2cn3cccc(C)c3n2)cc1 [O12],"Luminescence signal for ATP measurement, day-1 Average","WI-38 cells [1]; Batch 1, 10 μM",527095
same,"Luminescence signal for ATP measurement, day-2 Average","WI-38 cells [1]; Batch 1, 10 μM",702483
same,"Luminescence signal for ATP measurement, day-3 Average","WI-38 cells [1]; Batch 1, 10 μM",876448
same,"Luminescence signal for ATP measurement, day-4 Average","WI-38 cells [1]; Batch 1, 10 μM",1128385
same,"Luminescence signal for ATP measurement, day-5 Average","WI-38 cells [1]; Batch 1, 10 μM, day-5",1117938
same,viability at 10 µM,"WI-38 cells [1]; Homo sapiens, WI-38, 120 h, Batch 1, 10 μM, day-5, DMSO ctrl = 100.0%, read-out: ATP luminescence by day-5 normalized",109%
same,O = Potential toxicity,"WI-38 cells [1]; human, 5 days, 10 μM",0
same,Q = Potential toxicity,"WI-38 cells [1]; human, 5 days, 10 μM",0
same,M = Huntington's poly-Q toxicity attenuation,[2],0
same,K = Huntington's poly-Q toxicity attenuation,[2],0
same,activity at 10 µM,"[3]; read-out: Experiment 1, H2A.X-P DNA damage foci staining (no H2O2 stress treatment), at 10 uM",106%
same,activity at 10 µM,"[3]; read-out: Experiment 2, H2A.X-P DNA damage foci staining (no H2O2 stress treatment), at 10 uM",88%
same,activity at 10 µM,"[3]; read-out: Experiment 2, H2A.X-P DNA damage foci staining (under H2O2 stress treatment), at 10 uM",113%
same,activity at 10 µM,"[3]; read-out: Experiment 2, TP53BP1-P DNA damage foci staining (no H2O2 stress treatment), at 10 uM",142%
same,activity at 10 µM,"[3]; read-out: Experiment 2, TP53BP1-P DNA damage foci staining (under H2O2 stress treatment), at 10 uM",523%
same,P = Potential DNA-damaging,"[3]; human, 24 h",0
same,R = Potential DNA damaging,"[3]; human, 24 h",0
same,H2O2-resistant,WI-38 cells [4]; [9],YES
same,"No H2O2 stress treatment, at 10 uM (fold change)",WI-38 cells [4]; [10],1.01 fold change
same,H2O2-resistant,WI-38 cells [4]; [11],YES
same,EC50,WI-38 cells [4]; [12],1000 nM
same,EC50,WI-38 cells [4]; [13],1000 nM
same,fold induction at 10 µM,"WI-38 cells [5]; Exp. 1, WI-38 cells, 10 uM, normalized ATP measurement, read-out: Exp. 1, under MMS stress treatment, at 10 uM (fold change)",0.78
same,fold induction at 10 µM,"WI-38 cells [5]; Exp. 2, WI-38 cells, 10 uM, normalized ATP measurement, read-out: Exp. 2, under MMS stress treatment, at 10 uM (fold change)",2
same,B = MMS resistant,WI-38 cells [5]; [14],0
same,B = MMS resistant,WI-38 cells [5]; summary score,0
same,D = Triple resistant,WI-38 cells [5]; summary score,0
